Laboratory results: patent US9981988B2, “Polymorphic forms and co-crystals of a c-Met inhibitor” (AMGEN, INC., priority 2014, dated 2018)

Key:
Type in all cases: physicochemical
[1] = Solid state stability under accelerated stability testing conditions, HPLC
Protocol: High performance liquid chromatography (HPLC) analyses were performed on an Agilent 1100 or 1200 series HPLC equipped with a binary pump, diode-array detector, thermostated column compartment, and auto sampler. Separation and elution was achieved using a reverse-phase column and 0.1% triflouroacetic acid/water/acetonitrile mobile phase.
Solid samples of the free base monohydrate form of Compound M were placed under accelerated stability testing conditions (25° C./60% RH, 40° C./75% RH and 60° C./ambient RH) for 12 weeks.

[2] = Dynamic vapor sorption / moisture sorption
Protocol: Moisture sorption data was collected using a Surface Measurement Systems DVS-Advantage instrument. Equilibrium criteria were set at ±0.002% weight change in 5 minutes with a maximum equilibrium time of 360 minutes.

[3] = Equilibrium solubility in water and aqueous media; conditions: water, 22.5 °C, thermodynamic from solid

Area % (215 nm), peak 2, RRT 1.09 ([1]; Week 2, 40/75): 0.31 Area %
Area % (215 nm), peak 3, RRT 1.25 ([1]; Week 2, 40/75): 0.35 Area %
Area % (215 nm), peak 4, RRT 1.53 ([1]; Week 2, 40/75): <0.1 Area %
Area % (215 nm), peak monohydrate, RRT 1.00 ([1]; Week 2, 40/75): 99.35 Area %
Total Impurities, Area % (215 nm) ([1]; Week 2, 40/75): 0.65 Area %
Area % (215 nm), peak 2, RRT 1.09 ([1]; Week 2, 60 C.): 0.25 Area %
Area % (215 nm), peak 3, RRT 1.25 ([1]; Week 2, 60 C.): 0.27 Area %
Area % (215 nm), peak 4, RRT 1.53 ([1]; Week 2, 60 C.): 0.27 Area %
Area % (215 nm), peak monohydrate, RRT 1.00 ([1]; Week 2, 60 C.): 99.21 Area %
Total Impurities, Area % (215 nm) ([1]; Week 2, 60 C.): 0.79 Area %
Area % (215 nm), peak 2, RRT 1.09 ([1]; Week 4, 25/60): <0.1 Area %
Area % (215 nm), peak 3, RRT 1.25 ([1]; Week 4, 25/60): <0.1 Area %
Area % (215 nm), peak 4, RRT 1.53 ([1]; Week 4, 25/60): <0.1 Area %
Area % (215 nm), peak monohydrate, RRT 1.00 ([1]; Week 4, 25/60): 99.90 Area %
Total Impurities, Area % (215 nm) ([1]; Week 4, 25/60): 0.01 Area %
Area % (215 nm), peak 2, RRT 1.09 ([1]; Week 4, 40/75): <0.1 Area %
Area % (215 nm), peak 3, RRT 1.25 ([1]; Week 4, 40/75): <0.1 Area %
Area % (215 nm), peak 4, RRT 1.53 ([1]; Week 4, 40/75): <0.1 Area %
Area % (215 nm), peak monohydrate, RRT 1.00 ([1]; Week 4, 40/75): 99.86 Area %
Total Impurities, Area % (215 nm) ([1]; Week 4, 40/75): 0.14 Area %
Area % (215 nm), peak 2, RRT 1.09 ([1]; Week 4, 60 C.): <0.1 Area %
Area % (215 nm), peak 3, RRT 1.25 ([1]; Week 4, 60 C.): <0.1 Area %
Area % (215 nm), peak 4, RRT 1.53 ([1]; Week 4, 60 C.): <0.1 Area %
Area % (215 nm), peak monohydrate, RRT 1.00 ([1]; Week 4, 60 C.): 99.90 Area %
Total Impurities, Area % (215 nm) ([1]; Week 4, 60 C.): <0.1 Area %
Area % (215 nm), peak 2, RRT 1.09 ([1]; Week 8, 25/60): <0.1 Area %
Area % (215 nm), peak 3, RRT 1.25 ([1]; Week 8, 25/60): <0.1 Area %
Area % (215 nm), peak 4, RRT 1.53 ([1]; Week 8, 25/60): <0.1 Area %
Area % (215 nm), peak monohydrate, RRT 1.00 ([1]; Week 8, 25/60): 99.97 Area %
Total Impurities, Area % (215 nm) ([1]; Week 8, 25/60): <0.1 Area %
Area % (215 nm), peak 2, RRT 1.09 ([1]; Week 8, 40/75): <0.1 Area %
Area % (215 nm), peak 3, RRT 1.25 ([1]; Week 8, 40/75): <0.1 Area %
Area % (215 nm), peak 4, RRT 1.53 ([1]; Week 8, 40/75): <0.1 Area %
Area % (215 nm), peak monohydrate, RRT 1.00 ([1]; Week 8, 40/75): 99.92 Area %
Total Impurities, Area % (215 nm) ([1]; Week 8, 40/75): <0.1 Area %
Area % (215 nm), peak 2, RRT 1.09 ([1]; Week 8, 60 C.): <0.1 Area %
Area % (215 nm), peak 3, RRT 1.25 ([1]; Week 8, 60 C.): <0.1 Area %
Area % (215 nm), peak 4, RRT 1.53 ([1]; Week 8, 60 C.): <0.1 Area %
Area % (215 nm), peak monohydrate, RRT 1.00 ([1]; Week 8, 60 C.): 99.97 Area %
Total Impurities, Area % (215 nm) ([1]; Week 8, 60 C.): <0.1 Area %
Area % (215 nm), peak 2, RRT 1.09 ([1]; Week 12, 25/60): <0.1 Area %
Area % (215 nm), peak 3, RRT 1.25 ([1]; Week 12, 25/60): <0.1 Area %
Area % (215 nm), peak 4, RRT 1.53 ([1]; Week 12, 25/60): <0.1 Area %
Area % (215 nm), peak monohydrate, RRT 1.00 ([1]; Week 12, 25/60): 100.0 Area %
Total Impurities, Area % (215 nm) ([1]; Week 12, 25/60): <0.1 Area %
Area % (215 nm), peak 2, RRT 1.09 ([1]; Week 12, 40/75): <0.1 Area %
Area % (215 nm), peak 3, RRT 1.25 ([1]; Week 12, 40/75): <0.1 Area %
Area % (215 nm), peak 4, RRT 1.53 ([1]; Week 12, 40/75): <0.1 Area %
Area % (215 nm), peak monohydrate, RRT 1.00 ([1]; Week 12, 40/75): 100.0 Area %
Total Impurities, Area % (215 nm) ([1]; Week 12, 40/75): <0.1 Area %
Area % (215 nm), peak 2, RRT 1.09 ([1]; Week 12, −20 C.): <0.1 Area %
Area % (215 nm), peak 3, RRT 1.25 ([1]; Week 12, −20 C.): <0.1 Area %
Area % (215 nm), peak 4, RRT 1.53 ([1]; Week 12, −20 C.): <0.1 Area %
Area % (215 nm), peak monohydrate, RRT 1.00 ([1]; Week 12, −20 C.): 100.0 Area %
Total Impurities, Area % (215 nm) ([1]; Week 12, −20 C.): <0.1 Area %
total weight gain ([2]; between about 40% and about 90% relative humidity): about 0.2 wt. %
hygroscopicity ([2]; dynamic vapor sorption): non-hygroscopic
solubility at 138 h ([3]; pH 4.09, water, Sample 2, duration 138 h, isolation method 1, pH 4.09, about 20 to 25° C.): 259 µg/mL
solubility at 69 h ([3]; pH 6.85, water, Sample 3, duration 69 h, isolation method 2, pH 6.85, about 20 to 25° C.): 262 µg/mL
SMILES: COCCOc1cnc2ccn([C@H](C)c3nnc4c(F)cc(-c5cnn(C)c5)cn34)c(=O)c2c1 [free base monohydrate form of Compound M, 6-{(1R)-1-[8-fluoro-6-(1-methyl-1H-pyrazol-4-yl)[1,2,4]triazolo[4,3-a]pyridin-3-yl]ethyl}-3-(2-methoxyethoxy)-1,6-naphthyridin-5(6H)-one]
physical form ([1]; over 12 weeks at 25° C. and 60% relative humidity or at 40° C. and 75% relative humidity): remains in substantially the same physical form
